According to publication PMC12292521, “Discovery of a Potent Antimicrobial Peptide Through Rational Design: A New Frontier in Pathogen Control” (Biomolecules, 2025):
Converted amounts (≈) assume the structure as drawn. Peptide text beside a SMILES is read from it.

Columns and labels:
[1] = tested on: Monophasic Salmonella Typhimurium; type: cell-based, monophasic variant of Salmonella Typhimurium; settings: Monophasic murium, 6 h
Protocol: To assess the antimicrobial potential of the designed peptide, different strains of Gram-negative and Gram-positive bacteria were evaluated. Pseudomonas aeruginosa was an ATCC (27853) strain, while Escherichia coli, Listeria monocytogenes, Staphylococcus aureus, Campylobacter jejuni, Salmonella Typhimurium, the monophasic variant of Salmonella Typhimurium and Salmonella Napoli were isolated from food products by the Laboratory of Microbiological Food Control—Department of Food Microbiology of the Istituto Zooprofilattico Sperimentale del Mezzogiorno (IZSM) in Portici (Naples, Italy).
In accordance with the Clinical & Laboratory Standards Institute guidelines (CLSI, 2015), the Minimum Bactericidal Concentration (MBC), defined as the minimum concentration of peptide required to kill 99.9% of the tested bacterial suspension within a defined time interval, was determined. L. monocytogenes, E. coli, S. aureus, S. Typhimurium, monophasic variant of S. Typhimurium, S. Napoli, and P. aeruginosa were cultured at 37 °C in buffered peptone water (Thermo Fisher, Milan, Italy), while C. jejuni was cultured in Bolton Broth (Oxoid, Madrid, Spain). The bacterial suspension was collected and then diluted in fresh broth to a final concentration of 1.0 × 10^3 or 1.0 × 10^5 colony-forming units (CFUs)/mL. […] Samples containing only cell suspension and DMSO were used as controls. […]

[2] = tested on: Candida albicans ATCC 10231; assay: Quantitative suspension test, fungicidal activity, BS EN 1650:2019; type: cell-based; set-up: key to Fungicidal activity verdict: Active: For fungi: ACTIVE if log R ≥ 4 according to BS EN 1650:2019; Not Active: For fungi: ACTIVE if log R ≥ 4 according to BS EN 1650:2019; settings: vegetative cells, 60 min, 37 °C, BSA 0.3 g/L
Source text: (§1) The method is based on the suspension test according to BS EN 1276:2019, which specifies a quantitative suspension analysis for the evaluation of the bactericidal activity of chemical disinfectants and antiseptics used in food, industrial, domestic, and institutional areas against a panel of microorganisms under conditions that more closely simulate practical use. Briefly, S. aureus ATCC 6538, P. aeruginosa ATCC 15442, and Staphylococcus epidermidis ATCC 12228 were used as test organisms at a bacterial concentration of 1.0 × 10^8 colony-forming units (CFU) per mL (CFU/mL). In the test, BSA (Bovine Serum Albumin) (0.3 g/L) was used as an interfering substance to mimic clean conditions. […] The reaction mixture was incubated at 37 °C for 60 min before transferring each sample to a tube containing a neutralizer solution consisting of 30 g/L polysorbate 80, 1 g/L sodium thiosulfate, 3 g/L lecithin, 1 g/L tryptone, 8.5 g/L NaCl, 100 mL/L phosphate buffer and water. The negative control (untreated cells) was prepared using PBS instead of biocides. The solutions were then plated onto Tryptone Soy Agar (TSA) and incubated at 37 °C for 48 h to determine the logarithmic CFU/mL reduction, according to the following Equation:(2) log R = log (N0) − log (Na) where R refers to the reduction in viability, N refers to the number of CFU/mL in the test mixture at the beginning of the contact time, and Na refers to the number of CFU/mL in the test mixture at the end of the contact time. […] The test method and the minimum requirements for fungicidal activity of chemical disinfectant and antiseptic products were performed according to BS EN 1650:2019. The fungicidal activity was studied using the vegetative cells of Candida albicans ATCC 10231 and the spores of Aspergillus brasiliensis ATCC 16404 as test organisms. […] The mixture was maintained at 37 °C for a contact time of 60 min. At the end of this contact time, an aliquot was taken, and the fungicidal activity was immediately neutralized with a solution consisting of 30 g/L polysorbate 80, 1 g/L sodium thiosulfate, 3 g/L lecithin, 1 g/L tryptone, 8.5 g/L NaCl, 100 mL/L phosphate buffer and water. The samples were then plated onto malt extract agar (MEA) and incubated at 30 °C for 48 h to determine the numbers of surviving fungi as the logarithmic CFU/mL reduction, calculated according to Equation (2).

[3] = tested on: Aspergillus brasiliensis ATCC 16404; assay: as above; type: cell-based; set-up: key to Fungicidal activity verdict: Active: For fungi: ACTIVE if log R ≥ 4 according to BS EN 1650:2019; Not Active: For fungi: ACTIVE if log R ≥ 4 according to BS EN 1650:2019; settings: spores, 60 min, 37 °C, BSA 0.3 g/L
Source text: as §1

CC[C@H](C)[C@H](NC(=O)[C@H](Cc1c[nH]c2ccccc12)NC(=O)[C@H](CCCCN)NC(=O)[C@@H](N)CCCNC(=N)N)C(=O)N[C@@H](CC(C)C)C(=O)N[C@@H](CCCCN)C(=O)N[C@@H](Cc1c[nH]c2ccccc12)C(=O)N[C@@H](CC(C)C)C(=O)N[C@@H](CCCNC(=N)N)C(=O)N[C@H](C(=O)N[C@@H](Cc1c[nH]c2ccccc12)C(=O)N[C@@H](CCCCN)C(=O)N[C@@H](CCCCN)C(N)=O)[C@@H](C)O [RKW] (H-RKWILKWLRTWKK-NH2; N-terminus assumed)
MBC [1]: 20 µM (≈ 36.8 µg/mL) | Fungicidal activity verdict ([2]; RKW 5 µM): Na = 7.70 × 10^4 log Na = 4.89 log R = 1.71 Not Active | Na (CFU/mL at the end of the contact time) ([2]; RKW 5 µM): 7.70 × 10^4 CFU/mL | Fungicidal activity verdict ([2]; RKW 10 µM): Na = 1.08 × 10^3 log Na = 3.03 log R = 3.57 Not Active | Na (CFU/mL at the end of the contact time) ([2]; RKW 10 µM): 1.08 × 10^3 CFU/mL | Fungicidal activity verdict ([2]; RKW 20 µM): Na = 2.75 × 10^2 log Na = 2.44 log R = 4.16 Active | Na (CFU/mL at the end of the contact time) ([2]; RKW 20 µM): 2.75 × 10^2 CFU/mL | Fungicidal activity verdict ([2]; RKW 50 µM): Na = 2.75 × 10^2 log Na = 2.44 log R = 4.16 Active | Na (CFU/mL at the end of the contact time) ([2]; RKW 50 µM): 2.75 × 10^2 CFU/mL | Fungicidal activity verdict ([2]; RKW 100 µM): Na = 2.75 × 10^2 log Na = 2.44 log R = 4.16 Active | Na (CFU/mL at the end of the contact time) ([2]; RKW 100 µM): 2.75 × 10^2 CFU/mL | Fungicidal activity verdict ([3]; RKW 5 µM): Na = 3.40 × 10^6 log Na = 6.53 log R = −0.28 Not Active | Na (CFU/mL at the end of the contact time) ([3]; RKW 5 µM): 3.40 × 10^6 CFU/mL | Fungicidal activity verdict ([3]; RKW 10 µM): Na = 3.30 × 10^6 log Na = 6.52 log R = −0.29 Not Active | Na (CFU/mL at the end of the contact time) ([3]; RKW 10 µM): 3.30 × 10^6 CFU/mL | Fungicidal activity verdict ([3]; RKW 20 µM): Na = 2.20 × 10^6 log Na = 6.34 log R = −0.09 Not Active | Na (CFU/mL at the end of the contact time) ([3]; RKW 20 µM): 2.20 × 10^6 CFU/mL | Fungicidal activity verdict ([3]; RKW 50 µM): Na = 2.20 × 10^6 log Na = 6.34 log R = −0.09 Not Active | Na (CFU/mL at the end of the contact time) ([3]; RKW 50 µM): 2.20 × 10^6 CFU/mL | Fungicidal activity verdict ([3]; RKW 100 µM): Na = 2.20 × 10^6 log Na = 6.34 log R = −0.09 Not Active | Na (CFU/mL at the end of the contact time) ([3]; RKW 100 µM): 2.20 × 10^6 CFU/mL
